Results from US7595397B2, “Compounds which modulate the CB2 receptor” (Boehringer Ingelheim International GmbH, priority 2005, dated 2009).

The molecules below were run against T1, human CB2R (Homo sapiens, UniProt P34972) (assay: CB2R mediated modulation of cAMP synthesis). Conditions: CHO cells expressing human CB2R; decrease of forskolin induced cAMP; found 'through the use of the above described assays'.
T1 construct: host or cells: CHO cells
Format: cell-based
Method: B. CB2R Mediated Modulation of cAMP Synthesis:
CHO cells expressing human CB2R (Euroscreen) were plated at a density of 5000 cells per well in 384 well plates and incubated overnight at 37° C. After removing the media, the cells were treated with test compounds diluted in stimulation buffer containing 1 mM IBMX, 0.25% BSA and 10 uM Forskolin. The assay was incubated for 30 minutes at 37° C. Cells were lysed and the cAMP concentration was measured using DiscoverX-XS cAMP kit, following the manufacturer's protocol. In this setting, agonists will decrease forskolin induced production of cAMP while inverse agonists will further increase forskolin induced production of cAMP. EC50 of agonists were calculated as follows. The maximal amount of cAMP produced by forskolin compared to the level of cAMP inhibited by 1 uM CP55940 is defined as 100%. The EC50 value of each test compound was determined as the concentration at which 50% of the forskolin-stimulated cAMP synthesis was inhibited. Data was analyzed using a four-parameter logistic model. (Model 205 of XLfit 4.0).

T1 sequence (P34972 whole entry): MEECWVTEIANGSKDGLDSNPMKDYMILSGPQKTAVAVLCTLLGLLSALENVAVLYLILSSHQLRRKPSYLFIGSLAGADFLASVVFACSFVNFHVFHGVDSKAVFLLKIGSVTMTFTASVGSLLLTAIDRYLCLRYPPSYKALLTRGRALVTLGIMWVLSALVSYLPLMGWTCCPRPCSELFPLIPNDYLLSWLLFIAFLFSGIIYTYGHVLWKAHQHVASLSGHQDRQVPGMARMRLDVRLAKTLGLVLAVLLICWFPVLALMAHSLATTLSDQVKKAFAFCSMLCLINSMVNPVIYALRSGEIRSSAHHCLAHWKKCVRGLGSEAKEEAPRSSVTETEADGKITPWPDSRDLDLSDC

SMILES	agonistic activity
Clc1ccccc1-c1ccc(CN2CCCC(c3ccccc3)C2)cc1 (centres unmarked) [1-(2′-Chloro-biphenyl-4-ylmethyl)-3-phenyl-piperidine]	agonistic activity
O=S(=O)(c1ccccc1)N1CCN(Cc2ccc(-c3ccccc3C(F)(F)F)cc2)CC1c1ccccc1 (centres unmarked) [1-Benzenesulfonyl-2-phenyl-4-(2′-trifluoromethyl-biphenyl-4-ylmethyl)-piperazine]	agonistic activity
FC(F)(F)c1ccccc1-c1ccc(CN2CCOC(c3ccccc3)C2)cc1 (centres unmarked) [2-Phenyl-4-(2′-trifluoromethyl-biphenyl-4-ylmethyl)-morpholine]	agonistic activity
c1ccc(C2CN(Cc3ccc(-c4ccccn4)cc3)CCO2)cc1 (centres unmarked) [2-Phenyl-4-(4-pyridin-2-yl-benzyl)-morpholine]	agonistic activity
c1ccc(C2CN(Cc3ccc(-c4ccsc4)cc3)CCO2)cc1 (centres unmarked) [2-Phenyl-4-(4-thiophen-3-yl-benzyl)-morpholine]	agonistic activity
FC(F)(F)c1ccccc1-c1ccc(CN2CCNC(Cc3ccccc3)C2)cc1 (centres unmarked) [3-Benzyl-1-(2′-trifluoromethyl-biphenyl-4-ylmethyl)-piperazine]	agonistic activity
FC(F)(F)c1ccccc1-c1ccc(CN2CCCC(c3ccccc3)C2)cc1 (centres unmarked) [3-Phenyl-1-(2′-trifluoromethyl-biphenyl-4-ylmethyl)-piperidine]	agonistic activity
Clc1cccc(-c2ccc(CN3CCOC(c4ccccc4)C3)cc2)c1Cl (centres unmarked) [4-(2′,3′-Dichloro-biphenyl-4-ylmethyl)-2-phenyl-morpholine]	agonistic activity
Cc1ccc(Cl)c(-c2ccc(CN3CCOC(c4ccccc4)C3)cc2)c1 (centres unmarked) [4-(2′-Chloro-5′-methyl-biphenyl-4-ylmethyl)-2-phenyl-morpholine]	agonistic activity
Clc1ccccc1-c1ccc(CN2CCOC(c3ccccc3)C2)cc1 (centres unmarked) [4-(2′-Chloro-biphenyl-4-ylmethyl)-2-phenyl-morpholine]	agonistic activity
CCOc1ccccc1-c1ccc(CN2CCOC(c3ccccc3)C2)cc1 (centres unmarked) [4-(2′-Ethoxy-biphenyl-4-ylmethyl)-2-phenyl-morpholine]	agonistic activity
FC(F)(F)c1ccccc1-c1ccc(CN2CCOCC2)cc1 [4-(2′-Trifluoromethyl-biphenyl-4-ylmethyl)-morpholine]	agonistic activity

The remaining lines, values ahead:

agonistic activity	SMILES
agonistic activity	Clc1sccc1-c1ccc(CN2CCOC(c3ccccc3)C2)cc1 (centres unmarked) [4-[4-(2-Chloro-thiophen-3-yl)-benzyl]-2-phenyl-morpholine]
agonistic activity	N#Cc1ccccc1-c1ccc(CN2CCOC(c3ccccc3)C2)cc1 (centres unmarked) [4′-(2-Phenyl-morpholin-4-ylmethyl)-biphenyl-2-carbonitrile]
agonistic activity	FC(F)(F)c1ccccc1-c1ccc(CN2CCO[C@@H](c3ccccc3)C2)cn1 [(S)-2-Phenyl-4-[6-(2-trifluoromethyl-phenyl)-pyridin-3-ylmethyl]-morpholine]
agonistic activity	Clc1cccc(-c2ccc(CN3CCO[C@@H](c4ccccc4)C3)cc2)c1Cl [Example 183, (S)-4-(2′,3′-Dichloro-biphenyl-4-ylmethyl)-2-phenyl-morpholine]
agonistic activity	c1ccc(C[C@H]2CN(Cc3ccc(-c4ccccc4)nc3)CCN2)cc1 [Example 186, (S)-3-Benzyl-1-(6-phenyl-pyridin-3-ylmethyl)-piperazine]
agonistic activity	c1ccc(-c2ccc(CN3CCO[C@@H](c4ccccc4)C3)cn2)cc1 [Example 188, (S)-2-Phenyl-4-(6-phenyl-pyridin-3-ylmethyl)-morpholine]
agonistic activity	Clc1cccc(-c2ccc(CN3CCO[C@@H](c4ccccc4)C3)cn2)c1 [Example 189, (S)-4-[6-(3-Chloro-phenyl)-pyridin-3-ylmethyl]-2-phenyl-morpholine]
agonistic activity	Clc1sccc1-c1ccc(CN2CCO[C@@H](c3ccccc3)C2)cc1 [Example 191, (S)-4-[4-(2-Chloro-thiophen-3-yl)-benzyl]-2-phenyl-morpholine]
agonistic activity	N#Cc1ccccc1-c1ccc(CN2CCO[C@@H](c3ccccc3)C2)cc1 [Example 192, 4′-((S)-2-Phenyl-morpholin-4-ylmethyl)-biphenyl-2-carbonitrile]
agonistic activity	Clc1ccccc1-c1ccc(CN2CCO[C@@H](c3ccccc3)C2)cc1 [Example 193, (S)-4-(2′-Chloro-biphenyl-4-ylmethyl)-2-phenyl-morpholine]
agonistic activity	O=C(c1ccccc1)N1CCN(Cc2ccc(-c3ccccc3C(F)(F)F)cc2)CC1Cc1ccccc1 (centres unmarked) [Phenyl-[2-benzyl-4-(2′-trifluoromethyl-biphenyl-4-ylmethyl)-piperazin-1-yl]-methanone]
